# Experimental data from patent publication US20230139883A1, “Peptides for Inducing Differentiation” (Shimadzu Corporation, priority 2020, published 2023).
# What was measured:
# FGFR1 = assay: Phage display selection against FGFR1 with Miseq analysis of the bound phages; assay type: binding; conditions: for 1 nM Num. of reads: phage library after panning Round 5, bound to 1 nM FGFR1; for 10 nM Num. of reads: phage library after panning Round 5, bound to 10 nM FGFR1; for 100 nM Num. of reads: phage library after panning Round 5, bound to 100 nM FGFR1; for 1 nM Ranking / 10 nM Ranking / 100 nM Ranking: rank by number of reads; for 1 nM Ranking: 1 nM FGFR1; for 10 nM Ranking: 10 nM FGFR1; for 100 nM Ranking: 100 nM FGFR1
# Procedure: The collected phage library was mixed with 100 nM of FGFR3 solution and allowed to react overnight at 4° C. (Table 5: Panning Round 1). After the reaction, the binding phages were captured by magnetic beads modified with protein A, and washed three times with PBS-T, followed by eluting the bound phages with Gly-HCl (pH 2.0). After neutralizing with 2M Tris, the phages were infected to E. coli. After 4 hours of incubation, helper phages were added, and the E. coli were allowed to produce phages overnight. Next, phage solution was prepared from the culture supernatant. The prepared phage solution was mixed with FGFR3 solution and allowed to react overnight at 4° C. (Table 5: Panning Round 2). After the reaction, the bound phages were eluted. Phage solution prepared in the same way was mixed with FGFR3 solution and allowed to react at 4° C. for 1 hour (Table 5: Panning Round 3). After the reaction, the bound phages were eluted. This operation was repeated two more times, and after Panning Round 5, the bound phages were eluted. Note that as the rounds proceeded, the number of washes with PBS-T was increased. (Table 5). The titer of the Output phage in each round was also determined. The titer of phage was determined from the number of colonies obtained by incubating the E. coli TG1 strain contacted with the phage at 37° C. overnight. As shown in FIG. 3<Input phage (Round 5)>, the eluted phage library after panning was subjected to Human IgG Fc-immobilized plate, and negative selection was performed by collecting unbound phages. The phage library was then acted to FGFR1 prepared to concentrations of 100 nM, 10 nM, and 1 nM. Bound phages were then collected. The phagemid DNA of the collected phages was extracted, samples were prepared according to Illumina's protocol for Miseq, and a comprehensive analysis of the phagemid DNA was performed. Among the sequences obtained, 23 sequences with high incidence rates were selected (Table 6).
# FGFR3 = assay: Phage display selection against FGFR3 with Miseq analysis of the bound phages; assay type: binding; conditions: for 1 nM Num. of reads: phage library after panning Round 4, bound to 1 nM FGFR3; for 10 nM Num. of reads: phage library after panning Round 4, bound to 10 nM FGFR3; for 100 nM Num. of reads: phage library after panning Round 4, bound to 100 nM FGFR3; for 1 nM Ranking / 10 nM Ranking / 100 nM Ranking: rank by number of reads; for 1 nM Ranking: 1 nM FGFR3; for 10 nM Ranking: 10 nM FGFR3; for 100 nM Ranking: 100 nM FGFR3
# Procedure: The collected phage library was mixed with 100 nM of FGFR3 solution and allowed to react overnight at 4° C. (Table 9: Panning Round 1). After the reaction, the binding phages were captured by magnetic beads modified with protein A, and washed three times with PBS-T, followed by eluting the bound phages with Gly-HCl (pH 2.0). After neutralizing with 2M Tris, the pages were infected to E. coli (TG1 strain). After 4 hours of incubation, helper phages were added, and the E. coli (TG1 strain) were allowed to produce phages overnight. Next, phage solution was prepared from the culture supernatant. The prepared phage solution was mixed with FGFR3 solution and allowed to react overnight at 4° C. (Table 9: Panning Round 2). After the reaction, the bound phages were eluted. Phage solution prepared in the same way was mixed with FGFR3 solution and allowed to react at 4° C. for 1 hour (Table 9: Panning Round 3). After the reaction, the bound phages were eluted. This operation was further repeated, and after Panning Round 4, the bound phages were eluted. Note that as the rounds proceeded, the number of washes with PBS-T was increased. (Table 9). The titer of the Output phage in each round was also determined. The titer of phage was determined from the number of colonies obtained by incubating the E. coli TG1 strain contacted with the phage at 37° C. overnight. The phage library eluted after panning of Example 7 (Table 9: Input phage (Round 4)) was subjected to Human IgG Fc-immobilized plate, and negative selection was performed by collecting unbound phages. The phage library was then acted to FGFR3 prepared to concentrations of 100 nM, 10 nM, and 1 nM. Bound phages were then collected. The genomic DNA of the collected phages was extracted, samples were prepared according to Illumina's protocol for Miseq, and a comprehensive analysis of the phage genomic DNA was performed. Among the sequences obtained, 20 sequences high incidence rates were selected (Table 11). The yeast cells acquired in the screening of Example 8 were seeded onto SDCAA agar plates and cultured. Fourteen single colonies formed on the agar plates were randomly selected, and for each clone, the peptide DNA sequence incorporated into the yeast expression plasmid was analyzed using the Sanger method (Table 12).
Sequence,1 nM Num. of reads (FGFR1),10 nM Num. of reads (FGFR1),100 nM Num. of reads (FGFR1),1 nM Ranking (FGFR1),10 nM Ranking (FGFR1),100 nM Ranking (FGFR1),1 nM Num. of reads (FGFR3),10 nM Num. of reads (FGFR3),100 nM Num. of reads (FGFR3),1 nM Ranking (FGFR3),10 nM Ranking (FGFR3),100 nM Ranking (FGFR3)
CAAELAALDAELAALEGARLGKMSKVGKLIKLKEKLQNLKMAC [100n182],1428,1468,937,10,12,13,,,,,,
CAAELAALEAELAALEGADAFTLGSAGKLMMLKEKLNHLKHAC [100n1348],349,473,346,27,30,30,,,,,,
CAAELAALEAELAALEGAKKAEEGQKGKLYRLKNKLHYLKSAC [100n423],561,867,439,21,19,26,,,,,,
CAAELAALEAELAALEGASTPTLESRGKLGSLIFKLRQLKVAC [F3-100n50],,,,,,,1149,820,1121,14,15,14
CAAELAALEAELAALEGAVGDKRKSKGKLMMLKQKLELLKGAC [100n85],6769,9230,7482,2,2,2,,,,,,
CAAELAALEAELAALEGAWVEQVNRRGKLDGLKMKLQRLKLAC [100n51],704,1000,649,19,16,16,,,,,,
CAAELAALEAELAALEGDCLAGGCSFGKLLNLKQKLIRLKRAC [100n108],873,1155,464,13,14,22,,,,,,
CAAELAALEAELAALEGEGMSTLNRQGKLSVLKSKLLWLKHAC [F3-100n228],,,,,,,2006,1447,1753,5,6,7
CAAELAALEAELAALEGENVYTLGGLGKLMLLKYKLRELKGAC [F3-100n458],,,,,,,1304,789,1023,10,17,20
CAAELAALEAELAALEGETNMTVLMTGKLLVLKHKLEHLKWAC [F3-100n386],,,,,,,1216,781,1028,13,18,19
CAAELAALEAELAALEGFGGVVYSCEWQAVYLKYKLMRLKQAC [100n17],8443,10095,8500,1,1,1,,,,,,
CAAELAALEAELAALEGGDEVPHVGGGKLKMLKYQLNNLKHAC [100n417],721,1010,762,18,15,14,,,,,,
CAAELAALEAELAALEGGMATDHMNRGKLYRLKNKLHFLKIAC [100n781],352,262,228,26,48,40,,,,,,
CAAELAALEAELAALEGGRFSGLQEKGKLYGLKNKLHYLKRAC [100n368],2077,2177,1695,8,9,11,,,,,,
CAAELAALEAELAALEGINAVPMSGRGKLYSLKNKLHYLKNAC [100n12],273,267,258,30,46,34,,,,,,
CAAELAALEAELAALEGLGGFFNLRTGKLDELKMKLQHLKQAC [100n84],795,854,563,15,20,19,,,,,,
CAAELAALEAELAALEGMSNHTLGSIGKLMLLKDKLESLKEAC [100n1074],756,688,333,16,23,31,,,,,,
CAAELAALEAELAALEGNTANDPTASGKLKYLKYKLSNLKHAC [100n606],872,894,609,14,18,18,,,,,,
CAAELAALEAELAALEGPHPRHHHPHGKLKKLKRKLYKLKQAC [100n222],525,776,541,22,22,20,,,,,,
CAAELAALEAELAALEGQTFMNPHRLGKLDKLKLKLVHLKRAC [100n8],4243,3717,1974,7,7,8,,,,,,
CAAELAALEAELAALEGREPSGAMGSGKLKRLKYKLQNLKHAC [100n1793],493,493,395,23,29,29,,,,,,
CAAELAALEAELAALEGSSMDHVAYTGKLRMLKFRLELLKGAC [100n1543],233,276,216,37,43,43,,,,,,
CAAELAALEAELAALEGSVALGNKAGGKLRLLKLKLELLKDAC [100n1314],260,406,238,34,31,38,,,,,,
CAAELAALEAELAALEGVGRLYHMASGKLDRLKGKLMVLKYAC [100n82],6561,7109,4896,3,4,5,,,,,,
CAAELAALEAELAALEGVKELTLGTVGKLMSLKYKLWSLKQAC [100n83],4939,6581,3079,5,5,6,,,,,,
CAAELAALEAELAALEGVPALVGQEGGKLVLLKWKLWRLKNAC [100n36],483,677,398,24,24,28,,,,,,
